The values below are quoted from earlier work in patent US6303141A, “Transdermally administrable medicament with ACE inhibitors” (Hexal AG, priority 1995, dated 2001).

The conditions of the series: in vivo.

The structures appear in SMILES notation.

Consider `CCOC(=O)[C@H](CCc1ccccc1)N[C@H]1CCc2ccccc2N(CC(=O)O)C1=O` [benazepril], for which the oral bioavailability is on record as 28%.
Regarding `C[C@H](CS)C(=O)N1CCC[C@H]1C(=O)O` [captopril], the oral bioavailability entry is “approximately 70%”.
